Laboratory results taken from patent publication US12433952B2, “Antibody-drug conjugates targeting folate receptor alpha and methods of use” (ZYMEWORKS BC INC., priority 2022, dated 2025).
Where two headings read alike, the source gives them in different places.

Key:
Experiment in all cases: In vitro cytotoxicity of camptothecin analogues (CellTiter-Glo)
Assay type in all cases: cell-based
ZR-75-1 (breast cancer) = details: Homo sapiens, ZR-75-1, 120 h, read-out: pIC50 ZR-75 (converted)
Experimental: (§1) Cytotoxicity of the camptothecin analogues was assessed in vitro as follows.
(§2) In vitro potency was assessed on multiple cancer cell lines: SK-BR-3 (breast cancer), SKOV-3 (ovarian cancer), Calu-3 (lung cancer), ZR-75-1 (breast cancer) and MDA-MB-468 (breast cancer). Serial dilutions of camptothecin analogues were prepared in RPMI 1640+10% FBS, and 20 μL of each dilution was added to 384-well plates. Cells cultured in log-phase growth were detached by brief incubation in 0.05% Trypsin and resuspended in respective culturing media at 20,000 cells/mL (with the exception of ZR-75 cells, which were resuspended at 10,000 cells/mL). 50 μL of cell suspension was then added to the plates containing test articles. Cells were incubated with test articles for 4 d at 37° C. (with the exception of ZR-75 cells, which were incubated for 5 d). Growth inhibition was assessed by CellTiter-Glo® (Promega Corporation, Madison, WI) and luminescence was measured on a plate reader. IC50 values were determined by GraphPad Prism (GraphPad Software, San Diego CA).

SK-BR-3 (breast cancer) = details: Homo sapiens, SK-BR-3, 96 h, read-out: pIC50 SKBR-3 (converted)
Experimental: as §1, §2

[1] = tested on: MDA-MB-468 (breast cancer); details: Homo sapiens, MDA-MB-468, 96 h, read-out: pIC50 MDA-MB-468 (converted)
Experimental: as §1, §2

Calu-3 (lung cancer) = details: Homo sapiens, Calu-3, 96 h, read-out: pIC50 Calu-3 (converted)
Experimental: as §1, §2

SKOV-3 (ovarian cancer) = details: Homo sapiens, SK-OV-3, 96 h, read-out: pIC50 SKOV-3 (converted)
Experimental: as §1, §2

Row | Structure (SMILES) | IC50 (ZR-75-1 (breast cancer); 5 d incubation) [nM] | IC50 (SK-BR-3 (breast cancer); 4 d incubation) [nM] | IC50 ([1]; 4 d incubation) [nM] | IC50 (Calu-3 (lung cancer); 4 d incubation) [nM] | IC50 (SK-BR-3 (breast cancer)) [nM] | IC50 (SKOV-3 (ovarian cancer)) [nM] | IC50 [1] [nM] | IC50 (Calu-3 (lung cancer)) [nM] | IC50 (SKOV-3 (ovarian cancer); 4 d incubation) [nM] | IC50 (ZR-75-1 (breast cancer)) [nM]
1 | CC[C@@]1(O)C(=O)OCc2c1cc1n(c2=O)Cc2c-1nc1cc(F)c(OC)cc1c2CN1CCN(C)CC1 [Compound 107, (S)-4-ethyl-8-fluoro-4-hydroxy-9-methoxy-11-((4-methylpiperazin-1-yl)methyl)-1,12-dihydro-14H-pyrano[3′,4′:6,7]indolizino[1,2-b]quinoline-3,14(4H)-dione] | 2.75 | 3.09 | 3.89 | 4.07 | – | – | – | – | – | –
2 | CC[C@@]1(O)C(=O)OCc2c1cc1n(c2=O)Cc2c-1nc1cc(F)c(C)cc1c2CN1CCSCC1CO (stereo partly drawn) [Compound 114, (4S)-4-ethyl-8-fluoro-4-hydroxy-11-((3-(hydroxymethyl)thiomorpholino)methyl)-9-methyl-1,12-dihydro-14H-pyrano[3′,4′:6,7]indolizino[1,2-b]quinoline-3,14(4H)-dione] | – | – | – | – | 0.107 | 0.178 | 0.417 | 0.0933 | – | –
3 | CC[C@@]1(O)C(=O)OCc2c1cc1n(c2=O)Cc2c-1nc1cc(F)c(C)cc1c2CN1CC2CC1(CO)CO2 (stereo partly drawn) [Compound 115, (4S)-4-ethyl-8-fluoro-4-hydroxy-11-((4-(hydroxymethyl)-2-oxa-5-azabicyclo[2.2.1]heptan-5-yl)methyl)-9-methyl-1,12-dihydro-14H-pyrano[3′,4′:6,7]indolizino[1,2-b]quinoline-3,14(4H)-dione] | – | 2.57 | 4.17 | 1.29 | – | – | – | – | 3.8 | –
4 | CC[C@@]1(O)C(=O)OCc2c1cc1n(c2=O)Cc2c-1nc1cc(F)c(C)cc1c2CN1CCS(=O)(=O)CC1CO (stereo partly drawn) [Compound 116, (4S)-4-ethyl-8-fluoro-4-hydroxy-11-((3-(hydroxymethyl)-1,1-dioxidothiomorpholino)methyl)-9-methyl-1,12-dihydro-14H-pyrano[3′,4′:6,7]indolizino[1,2-b]quinoline-3,14(4H)-dione] | – | 7.08 | 9.33 | 0.794 | – | – | – | – | 12.6 | –
5 | CC[C@@]1(O)C(=O)OCc2c1cc1n(c2=O)Cc2c-1nc1cc(F)c(C)cc1c2CN1CC2CC(C1)C2O (stereo partly drawn) [Compound 117, (4S)-4-ethyl-8-fluoro-4-hydroxy-11-((6-hydroxy-3-azabicyclo[3.1.1]heptan-3-yl)methyl)-9-methyl-1,12-dihydro-14H-pyrano[3′,4′:6,7]indolizino[1,2-b]quinoline-3,14(4H)-dione] | – | 0.0955 | 0.468 | 0.162 | – | – | – | – | 0.17 | –
6 | CC[C@@]1(O)C(=O)OCc2c1cc1n(c2=O)Cc2c-1nc1cc(F)c(C)cc1c2CN1CC(F)(CO)C1 [Compound 118, (S)-4-ethyl-8-fluoro-11-((3-fluoro-3-(hydroxymethyl)azetidin-1-yl)methyl)-4-hydroxy-9-methyl-1,12-dihydro-14H-pyrano[3′,4′:6,7]indolizino[1,2-b]quinoline-3,14(4H)-dione] | – | 1.51 | 1.86 | 0.933 | – | – | – | – | 1.45 | –
7 | CC[C@@]1(O)C(=O)OCc2c1cc1n(c2=O)Cc2c-1nc1cc(F)c(C)cc1c2CN1CC(CO)C1 [Compound 119, (S)-4-ethyl-8-fluoro-4-hydroxy-11-((3-(hydroxymethyl)azetidin-1-yl)methyl)-9-methyl-1,12-dihydro-14H-pyrano[3′,4′:6,7]indolizino[1,2-b]quinoline-3,14(4H)-dione] | – | 4.17 | 2.75 | 1.17 | – | – | – | – | 3.72 | –
8 | CC[C@@]1(O)C(=O)OCc2c1cc1n(c2=O)Cc2c-1nc1cc(F)c(C)cc1c2CN1CCC(F)(F)C(CO)C1 (stereo partly drawn) [Compound 120, (4S)-11-((4,4-difluoro-3-(hydroxymethyl)piperidin-1-yl)methyl)-4-ethyl-8-fluoro-4-hydroxy-9-methyl-1,12-dihydro-14H-pyrano[3′,4′:6,7]indolizino[1,2-b]quinoline-3,14(4H)-dione] | – | 1.1 | 0.191 | 0.1 | – | – | – | – | 0.251 | –
9 | CC[C@@]1(O)C(=O)OCc2c1cc1n(c2=O)Cc2c-1nc1cc(F)c(C)cc1c2CN1C2CCC1(CO)CC2 [Compound 121, (S)-4-ethyl-8-fluoro-4-hydroxy-11-((1-(hydroxymethyl)-7-azabicyclo[2.2.1]heptan-7-yl)methyl)-9-methyl-1,12-dihydro-14H-pyrano[3′,4′:6,7]indolizino[1,2-b]quinoline-3,14(4H)-dione] | – | – | – | – | 0.148 | 0.195 | 0.269 | 0.145 | – | –
10 | CC[C@@]1(O)C(=O)OCc2c1cc1n(c2=O)Cc2c-1nc1cc(F)c(C)cc1c2CNS(=O)(=O)Cc1ccc([N+](=O)[O-])cc1 [Compound 124, (S)—N-((4-ethyl-8-fluoro-4-hydroxy-9-methyl-3,14-dioxo-3,4,12,14-tetrahydro-1H-pyrano[3′,4′:6,7]indolizino[1,2-b]quinolin-11-yl)methyl)-1-(4-nitrophenyl) methanesulfonamide] | 2.29 | 1.2 | 3.47 | 1.7 | – | – | – | – | – | –
11 | CC[C@@]1(O)C(=O)OCc2c1cc1n(c2=O)Cc2c-1nc1cc(F)c(OC)cc1c2CNS(=O)(=O)CCO [Compound 130, (S)—N-((4-ethyl-8-fluoro-4-hydroxy-9-methoxy-3,14-dioxo-3,4,12,14-tetrahydro-1H-pyrano[3′,4′:6,7]indolizino[1,2-b]quinolin-11-yl)methyl)-2-hydroxyethane-1-sulfonamide] | – | 14.8 | 6.46 | 1.66 | – | – | – | – | 24 | –
12 | CC[C@@]1(O)C(=O)OCc2c1cc1n(c2=O)Cc2c-1nc1cc(F)c(OC)cc1c2CNC(=O)NCc1ccc(N)cc1 [Compound 135, (S)-1-(4-aminobenzyl)-3-((4-ethyl-8-fluoro-4-hydroxy-9-methoxy-3,14-dioxo-3,4,12,14-tetrahydro-1H-pyrano[3′,4′:6,7]indolizino[1,2-b]quinolin-11-yl)methyl)urea] | – | – | – | – | 12.3 | – | 10.7 | – | – | 13.2
13 | CC[C@@]1(O)C(=O)OCc2c1cc1n(c2=O)Cc2c-1nc1cc(F)c(N)cc1c2CNC(C)=O [Compound 147, (S)—N-((9-amino-4-ethyl-8-fluoro-4-hydroxy-3,14-dioxo-3,4,12,14-tetrahydro-1H-pyrano[3′,4′:6,7]indolizino[1,2-b]quinolin-11-yl)methyl)acetamide] | – | 5.13 | 21.4 | 21.4 | – | – | – | – | 43.7 | –
14 | CC[C@@]1(O)C(=O)OCc2c1cc1n(c2=O)Cc2c-1nc1cc(F)c(N)cc1c2CN=[N+]=[N-] [Compound 152, (S)-9-amino-11-(azidomethyl)-4-ethyl-8-fluoro-4-hydroxy-1,12-dihydro-14H-pyrano[3′,4′:6,7]indolizino[1,2-b]quinoline-3,14(4H)-dione] | – | – | – | – | 3.24 | 2.88 | 5.01 | 1.48 | – | –
15 | CC[C@@]1(O)C(=O)OCc2c1cc1n(c2=O)Cc2c-1nc1cc(F)c(N)cc1c2CN1CCN(S(=O)(=O)c2ccccc2)CC1 [Compound 153, (S)-9-amino-4-ethyl-8-fluoro-4-hydroxy-11-((4-(phenylsulfonyl)piperazin-1-yl)methyl)-1,12-dihydro-14H-pyrano[3′,4′:6,7]indolizino[1,2-b]quinoline-3,14(4H)-dione] | – | 0.513 | – | 0.115 | – | – | – | – | 0.933 | –
